From patent publication US11878966B2, “Substituted 4-benzyl and 4-benzoyl piperidine derivates” (89BIO LTD, priority 2015, dated 2024)

Legend:
[1] = target: T1, recombinant human baculovirus-expressed GST-tagged FASN (Homo sapiens, UniProt P49327); test: FASN enzyme activity assay: fluorescence-based detection of CoA with CPM; format: biochemical; details: 5 nM FASN, 150 μM NADPH, 10 μM acetyl-CoA, 25 μM malonyl-CoA, 90 minutes incubation
T1 construct: GST; host or cells: baculovirus expression system (insect cells implied)
T1 sequence (P49327 whole entry): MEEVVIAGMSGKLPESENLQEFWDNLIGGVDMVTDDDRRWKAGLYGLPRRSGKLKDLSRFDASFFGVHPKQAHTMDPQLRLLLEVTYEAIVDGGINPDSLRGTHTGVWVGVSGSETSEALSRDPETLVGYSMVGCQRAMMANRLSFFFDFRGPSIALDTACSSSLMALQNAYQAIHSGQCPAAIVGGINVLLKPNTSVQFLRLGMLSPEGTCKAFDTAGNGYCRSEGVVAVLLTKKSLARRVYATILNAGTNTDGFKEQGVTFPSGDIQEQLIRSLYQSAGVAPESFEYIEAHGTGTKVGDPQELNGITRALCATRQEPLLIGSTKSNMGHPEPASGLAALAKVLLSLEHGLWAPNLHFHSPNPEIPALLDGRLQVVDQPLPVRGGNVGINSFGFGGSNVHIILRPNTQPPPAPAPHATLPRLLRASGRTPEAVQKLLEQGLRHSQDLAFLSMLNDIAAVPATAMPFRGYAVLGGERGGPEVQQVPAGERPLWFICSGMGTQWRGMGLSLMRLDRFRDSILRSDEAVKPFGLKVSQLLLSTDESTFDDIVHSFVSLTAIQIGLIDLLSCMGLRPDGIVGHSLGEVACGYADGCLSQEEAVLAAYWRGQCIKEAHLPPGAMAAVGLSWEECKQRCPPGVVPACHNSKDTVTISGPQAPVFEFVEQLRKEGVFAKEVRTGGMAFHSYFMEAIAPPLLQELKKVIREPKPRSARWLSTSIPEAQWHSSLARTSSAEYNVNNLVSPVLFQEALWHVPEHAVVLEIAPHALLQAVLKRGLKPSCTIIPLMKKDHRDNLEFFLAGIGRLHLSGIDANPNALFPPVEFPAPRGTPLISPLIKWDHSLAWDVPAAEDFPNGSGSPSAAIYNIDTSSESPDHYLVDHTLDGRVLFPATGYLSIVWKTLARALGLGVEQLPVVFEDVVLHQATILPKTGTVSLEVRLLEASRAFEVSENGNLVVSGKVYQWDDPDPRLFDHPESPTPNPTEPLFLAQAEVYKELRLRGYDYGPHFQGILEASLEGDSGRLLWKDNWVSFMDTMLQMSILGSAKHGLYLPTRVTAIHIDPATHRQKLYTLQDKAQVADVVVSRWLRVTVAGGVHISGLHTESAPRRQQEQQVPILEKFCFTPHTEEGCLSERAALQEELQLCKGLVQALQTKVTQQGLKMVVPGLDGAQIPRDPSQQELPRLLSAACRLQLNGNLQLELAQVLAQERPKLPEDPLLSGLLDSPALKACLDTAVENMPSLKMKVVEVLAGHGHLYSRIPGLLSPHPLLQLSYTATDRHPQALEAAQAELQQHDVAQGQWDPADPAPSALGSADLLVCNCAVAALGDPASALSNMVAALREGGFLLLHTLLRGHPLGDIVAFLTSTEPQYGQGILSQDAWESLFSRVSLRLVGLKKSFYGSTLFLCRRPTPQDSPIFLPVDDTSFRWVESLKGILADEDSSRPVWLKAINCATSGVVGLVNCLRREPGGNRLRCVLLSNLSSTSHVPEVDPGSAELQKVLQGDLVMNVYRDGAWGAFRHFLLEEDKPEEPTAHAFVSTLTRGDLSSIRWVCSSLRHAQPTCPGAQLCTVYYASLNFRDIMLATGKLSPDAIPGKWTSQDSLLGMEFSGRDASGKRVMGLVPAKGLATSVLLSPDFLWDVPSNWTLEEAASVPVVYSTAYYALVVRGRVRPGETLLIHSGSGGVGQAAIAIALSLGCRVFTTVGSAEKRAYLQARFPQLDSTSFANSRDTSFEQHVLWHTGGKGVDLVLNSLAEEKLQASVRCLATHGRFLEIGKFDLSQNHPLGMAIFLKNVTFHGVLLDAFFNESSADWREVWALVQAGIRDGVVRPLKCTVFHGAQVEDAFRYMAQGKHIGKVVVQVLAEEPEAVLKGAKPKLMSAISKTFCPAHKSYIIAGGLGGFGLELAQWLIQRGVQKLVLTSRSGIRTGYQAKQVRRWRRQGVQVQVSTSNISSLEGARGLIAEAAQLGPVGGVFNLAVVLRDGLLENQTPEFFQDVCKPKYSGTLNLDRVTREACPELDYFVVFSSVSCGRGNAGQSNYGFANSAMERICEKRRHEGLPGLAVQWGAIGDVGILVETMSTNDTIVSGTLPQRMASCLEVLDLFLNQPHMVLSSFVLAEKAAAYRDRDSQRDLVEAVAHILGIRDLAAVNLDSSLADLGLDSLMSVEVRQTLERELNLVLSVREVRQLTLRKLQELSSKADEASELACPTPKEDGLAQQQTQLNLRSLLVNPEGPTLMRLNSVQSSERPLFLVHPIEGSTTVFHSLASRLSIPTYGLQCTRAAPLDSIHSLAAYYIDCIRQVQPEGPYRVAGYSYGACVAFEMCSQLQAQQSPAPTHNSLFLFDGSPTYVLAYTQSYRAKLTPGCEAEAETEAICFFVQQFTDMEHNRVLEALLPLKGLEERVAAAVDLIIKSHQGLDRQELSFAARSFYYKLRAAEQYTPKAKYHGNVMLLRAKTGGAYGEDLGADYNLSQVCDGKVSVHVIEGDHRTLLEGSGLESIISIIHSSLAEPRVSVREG
Outline: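 GST-tagged human FASN (5 nM, baculovirus-expressed) in 50 mM HEPES pH 7.5 with 150 μM NADPH, 10 μM acetyl-CoA and 25 μM malonyl-CoA, 0.5% DMSO, started with malonyl-CoA and run 90 min. CoA was detected with CPM (30 min; ex 390/em 530 nm). IC50 came from sigmoidal variable-slope fits of % inhibition.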

melting point	IC50 [1]	SMILES
203 °C	1 to 10 µM	CC(C)C(=O)N1CCC(O)(Cc2ccc(-c3cc4ccccc4o3)cc2)CC1 [Example 157, 1-(4-(4-(benzofuran-2-yl)benzyl)-4-hydroxypiperidin-1-yl)-2-methylpropan-1-one]
174 °C	1 to 10 µM	CCC(=O)N1CCC(O)(Cc2ccc(-c3cc4ccccc4o3)cc2)CC1 [Example 156, 1-(4-(4-(benzofuran-2-yl)benzyl)-4-hydroxypiperidin-1-yl)propan-1-one]
129 °C	1 to 10 µM	CC(C)C(=O)N1CCC(O)(Cc2ccc(-c3ccc4occc4c3)cc2)CC1 [Example 153, 1-(4-(4-(benzofuran-5-yl)benzyl)-4-hydroxypiperidin-1-yl)-2-methylpropan-1-one]
196 °C	1 to 10 µM	CC(C)C(=O)N1CCC(O)(Cc2ccc(-c3cncc4ccccc34)cc2)CC1 [Example 159, 1-(4-hydroxy-4-(4-(isoquinolin-4-yl)benzyl)piperidin-1-yl)-2-methylpropan-1-one]
171 °C	0.1 to 0.999 µM	CCC(=O)N1CCC(O)(Cc2ccc(-c3ccc4cccnc4c3)cc2)CC1 [Example 150, 1-(4-hydroxy-4-(4-(quinolin-7-yl)benzyl)piperidin-1-yl)propan-1-one]
94 °C	0.1 to 0.999 µM	CCC(=O)N1CCC(O)(Cc2ccc(-c3ccc4cnccc4c3)cc2)CC1 [Example 160, 1-(4-hydroxy-4-(4-(isoquinolin-6-yl)benzyl)piperidin-1-yl)propan-1-one]
89 °C	1 to 10 µM	CCC(=O)N1CCC(O)(Cc2ccc(-c3cnc4ccccc4c3)cc2)CC1 [Example 148, 1-(4-hydroxy-4-(4-(quinolin-3-yl)benzyl)piperidin-1-yl)propan-1-one]
102 to 105 °C	0.001 to 0.099 µM	COc1c(-c2ccc(CC3(C#N)CCN(C(=O)[C@H]4CCCO4)CC3)cc2)ccc2cccnc12 [Example 91, 4-[4-(8-Methoxyquinolin-7-yl)-benzyl]-1-((R)-tetrahydrofuran-2-carbonyl)-piperidine-4-carbonitrile]
169 to 171 °C	1 to 10 µM	CCC(=O)N1CCC(C(C)c2ccc(-c3ccc4c(c3)NCCC4)cc2)CC1 (stereo not shown) [Example 38, 1-(4-(1-(4-(1,2,3,4-tetrahydroquinolin-7-yl)phenyl)ethyl)piperidin-1-yl)propan-1-one]
168 °C	1 to 10 µM	CC(C)C(=O)N1CCC(O)(Cc2ccc(-c3cnc4ccccc4c3)cc2)CC1 [Example 149, 1-(4-hydroxy-4-(4-(quinolin-3-yl)benzyl)piperidin-1-yl)-2-methylpropan-1-one]
100 to 102 °C	0.001 to 0.099 µM	C=C(c1ccc(-c2cnc3ccccc3c2)cc1)C1CCN(C(=O)C2CC2)CC1 [Example 41, Cyclopropyl-{4-[1-(4-quinolin-3-yl-phenyl)-vinyl]-piperidin-1-yl}-methanone]
153 °C	1 to 10 µM	CC(C)C(=O)N1CCC(O)(Cc2ccc(-c3ccc4cccnc4c3)cc2)CC1 [Example 151, 1-(4-hydroxy-4-(4-(quinolin-7-yl)benzyl)piperidin-1-yl)-2-methylpropan-1-one]
175 °C	1 to 10 µM	CC(C)C(=O)N1CCC(O)(Cc2ccc(-c3ccc4cnccc4c3)cc2)CC1 [Example 147, 1-[4-Hydroxy-4-(4-isoquinolin-6-yl-benzyl)-piperidin-1-yl]-2-methyl-propan-1-one]
76 °C	1 to 10 µM	CCC(=O)N1CCC(O)(Cc2ccc(-c3ccc4occc4c3)cc2)CC1 [Example 152, 1-(4-(4-(benzofuran-5-yl)benzyl)-4-hydroxypiperidin-1-yl)propan-1-one]
